System: Aedes aegypti (AE) mosquitoes
Assay: olfactometer two-stimulus choice test, average percent of mosquitoes attracted
Assay type: in vivo
Settings: for attraction of mosquitoes, result in words: olfactometer, AE mosquitoes, summary statements of the text
Protocol: 100 Aedes aegypti (AE) mosquitoes were placed into an olfactometer unit. For each test, the mosquitoes were exposed to two sets of stimuli for a collection period of 3 minutes. The mosquitoes could choose between the stimuli or not respond.
For the first test, ferric chloride hexahydrate was impregnated on diatomaceous earth and was activated with a moisture containing substance to form the first stimulus center. This material released water and trace amounts of hydrochloric acid, HCl. The second stimulus center in this test was a blank (no chemical stimulus).
For the second test, dry carbon dioxide was fed at 5 ml/min from a standard gas cylinder as the first stimulus center. The second stimulus center in this test was a blank (no chemical stimulus).
For the third test, ferric chloride hexahydrate was impregnated on diatomaceous earth and was activated with a moisture containing substance to form the first stimulus center. This material released water and trace amounts of hydrochloric acid, HCl. The second stimulus center was dry carbon dioxide fed at 5 ml/min from a standard gas cylinder.
As with Example 1, 100 AE mosquitoes were placed into an olfactometer unit. For each test, the mosquitoes were exposed to two sets of stimuli for a collection period of 3 minutes. The mosquitoes could choose between the stimuli or not respond.
For the first test, dry carbon dioxide was fed at 5 ml/min from a standard gas cylinder as the first stimulus center. The second stimulus center in this test was a blank (no chemical stimulus).
For the second test, ferric chloride hexahydrate impregnated on diatomaceous earth and sodium bicarbonate powder were contained in a sachet. The sachet was activated by combining the two powders stimulating a chemical reaction that released carbon dioxide, water and trace amounts of hydrochloric acid, forming the first stimulus center. The reaction produces by-product water that stimulates hydrochloric acid production from the ferric chloride. The sachet was designed to release CO2 at a rate of 5 ml/min over the collection period. The second stimulus center in this test was a blank (no chemical stimulus).
For the third test, a sachet containing ferric chloride hexahydrate impregnated on diatomaceous earth and sodium bicarbonate powder, similar to the sachet used in the second test, was activated with a moisture-containing substance to release carbon dioxide water and trace amounts of hydrochloric acid, forming the first stimulus center. The reaction produces by-product water that stimulates hydrochloric acid production from the ferric chloride. The second stimulus center was carbon dioxide fed at 5 ml/min from a standard gas cylinder.
As with Examples 1 and 2, 100 AE mosquitoes were placed into an olfactometer unit. For each test, the mosquitoes were exposed to two sets of stimuli for a collection period of 3 minutes. The mosquitoes could choose between the stimuli or not respond.
For the first test, ferric chloride hexahydrate impregnated on a diatomaceous earth was activated with a moisture containing substance to form the first stimulus center. This material released water and trace amounts of hydrochloric acid, HCl. The second stimulus center in this test was a blank (no chemical stimulus).
The sachet was activated by combining the two powders stimulating a chemical reaction that released carbon dioxide, water and trace amounts of hydrochloric acid, forming the first stimulus center. The reaction produces by-product water that stimulates hydrochloric acid production from the ferric chloride. The sachet was designed to release carbon dioxide at a rate of 5 ml/min. The second stimulus center in this test was a blank.
For the third test, a sachet identical to that used in the second test and containing ferric chloride hexahydrate impregnated on diatomaceous earth and sodium bicarbonate powder was activated, forming the first stimulus center.

`O=C=O` [CO2 (Dry), carbon dioxide] was tested, and the “Stimulant 2 - Avg. % attracted” value (100 AE mosquitoes, 3 min, first stimulus center Activated Ferric Chloride) was 12%, the “Stimulant 2 - Avg. % attracted” value (100 AE mosquitoes, 3 min, first stimulus center CO2/HCl/H2O Sachet) was 2% and the “Stimulant 1 - Avg. % attracted” value (100 AE mosquitoes, 3 min collection, second stimulus center blank (Examples 1-3)) was 21%. The “Stimulant 2 - Avg. % attracted” value (Example 4: CO2 5 mL/min, 3 min, first stimulus center CO2 flowing over water surface) was 7%, the “Stimulant 1 - Avg. % attracted” value (Example 4: dry CO2 5 mL/min through tube or cartridge, 100 AE mosquitoes, 3 min, second stimulus center blank) was 15% and the “attraction of mosquitoes, result in words” value (listed as CO2 (dry)) was “is an attractant for mosquitoes”. The “attraction of mosquitoes, result in words” value (listed as carbon dioxide) was “did not draw significant numbers”.
